Experimental data as given in patent US5296591A, “Trifluoromethylketone derivatives, processes for preparation thereof and use thereof” (Fujisawa Pharmaceutical Co., Ltd., priority 1990, dated 1994).

Legend:
[1] = biological target: T1, porcine pancreas elastase (Type IV) (Sus scrofa, UniProt P00772); assay: Protease inhibition assay (in vitro), porcine pancreas elastase; format: biochemical; conditions: substrate N-succinyl-(Ala)3-p-nitroanilide, enzyme 5 μg/ml final; read-out: IC50 Porcine pancreas elastase
T1 construct: purchased Sigma Chemicals Co; host or cells: porcine pancreas (from the enzyme's name)
Description: (§1) A buffer used throughout the assay was 0.1M HEPES (4-(2-hydroxyethyl)-1-piperazineethanesulfonic acid) containing 0.5M NaCl, pH 7.5. Twenty-five microliters of 2 mM methoxysuccinyl-(Ala)2 -Pro-Val-p-nitroanilide (100 mM of dimethyl sulfoxide solution were diluted in the buffer) and 50 μl of sample (10 μl of sample in organic solvent was diluted 5-fold in the buffer) were mixed in wells of 96 well-microliter plate. An absorbance of the mixture in wavelength at 415 nm was measured by a microplate reader (Corona Electric Co., Ibaraki, Japan). After the measurement, 25 μl of 6 μg/ml human sputum elastase (HSE) was added and the mixture was allowed to stand for 30 minutes at room temperature. Then, the absorbance at 415 nm was measured. Percent inhibition by drug was determined by 100×(1-"r" inhibitor present/"r" inhibitor absent), where "r" is absorbance after 30 minutes incubation minus absorbance before enzyme addition. Effect of inhibitors against porcine pancreas elastase (Type IV, 5 μg/ml final) was assayed similarly using N-succinyl-(Ala)3 -p-nitroanilide. HSE was obtained from Elastin Products Company Inc., Mo., U.S.A. All other substrates and protease were purchased from Sigma Chemicals Co.

[2] = system: human sputum elastase-induced lung hemorrhage in hamsters; assay: Elastase-induced pulmonary damage (lung hemorrhage) in hamsters; format: in vivo, hamster; conditions: 5 min predose; for Hemorrhage (OD541 nm): BAL hemoglobin 3 h after elastase; for ED50 elastase-induced lung hemorrhage: intratracheal
Description: Hamsters under pentobarbital anesthesia were used. Saline or saline-containing human sputum elastase was instilled intratracheally via a small incision in the ventral neck region using 1-ml syringe with a 27-gauge needle. After 3 hours, animals were sacrificed by CO2 asphyxiation, each animal's trachea was reexposed. The lungs were then laveged using a 2.5-ml aliquot of saline and then withdrawing the saline, yielding a final volume of approximately 1.5 ml bronchoalveolar lavage (BAC) fluid from each animal.
The cells of BAL fluid were collected by centrifugation and were then diluted with distilled water to disrupt, and the hemoglobin contents determined spectrophotometrically at 541 nm.
Test drugs were dissolved in saline or methyl cellulose, and instilled intratracheally in the same manner as used to instill elastase, at 5 minutes before instillation of elastase.

[3] = biological target: T2, human sputum elastase (HSE) (Homo sapiens, UniProt P08246); assay: Protease inhibition assay (in vitro), human sputum elastase; format: biochemical; conditions: substrate methoxysuccinyl-(Ala)2-Pro-Val-p-nitroanilide, 30 min, room temperature, pH 7.5
T2 construct: HSE was obtained from Elastin Products Company Inc., Mo., U.S.A; purchased Elastin Products Company Inc; host or cells: human sputum (from the enzyme's name)
T2 sequence (P08246 30-267): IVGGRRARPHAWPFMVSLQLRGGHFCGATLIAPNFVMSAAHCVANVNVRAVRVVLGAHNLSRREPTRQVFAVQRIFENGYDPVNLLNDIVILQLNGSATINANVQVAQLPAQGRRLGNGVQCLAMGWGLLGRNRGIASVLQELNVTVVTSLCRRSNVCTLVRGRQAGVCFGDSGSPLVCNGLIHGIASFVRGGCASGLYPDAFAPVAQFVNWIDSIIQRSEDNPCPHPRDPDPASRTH
Description: as §1

T1 sequence (P00772 27-266): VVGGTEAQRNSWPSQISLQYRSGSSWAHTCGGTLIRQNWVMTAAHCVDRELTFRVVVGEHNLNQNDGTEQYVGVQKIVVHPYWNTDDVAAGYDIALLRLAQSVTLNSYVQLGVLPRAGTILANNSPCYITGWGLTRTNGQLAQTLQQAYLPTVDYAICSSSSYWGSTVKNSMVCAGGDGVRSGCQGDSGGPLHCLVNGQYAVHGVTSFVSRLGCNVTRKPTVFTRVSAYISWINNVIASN

Compound | IC50 [1] [µM] | % inhibition of elastase-induced lung hemorrhage ([2]; 1 μg/site intratracheal) [%] | Hemorrhage (OD541 nm) ([2]; 1 μg/site intratracheal) | % inhibition of elastase-induced lung hemorrhage ([2]; 10 μg/site intratracheal) [%] | Hemorrhage (OD541 nm) ([2]; 10 μg/site intratracheal) | % inhibition of elastase-induced lung hemorrhage ([2]; 100 μg/site intratracheal) [%] | Hemorrhage (OD541 nm) ([2]; 100 μg/site intratracheal) | ED50 elastase-induced lung hemorrhage [2] [μg/site] | IC50 [3] [nM]
CC(C)C(NC(=O)[C@@H]1CCCN1C(=O)[C@@H](NC(=O)c1ccc(C(=O)NCCCC(=O)O)cc1)C(C)C)C(=O)C(F)(F)F (mixture of isomers) [Example 20, 3(RS)-[[4-[(3-carboxypropyl)aminocarbonyl]phenylcarbonyl]-L-valyl-L-prolyl]amino-1,1,1-trifluoro-4-methyl-2-oxopentane] | 2.4 | 16.1 | 10.94 ± 1.35 | 86.0 | 2.522 ± 0.803 | 104.7 | 0.2680 ± 0.050 | 2.5 | 890
CC(C)C(NC(=O)[C@@H]1CCCN1C(=O)[C@@H](NC(=O)c1ccc(C(=O)NCCN2CCOCC2)cc1)C(C)C)C(=O)C(F)(F)F.Cl (mixture of isomers) [Example 21, 3(RS)-[[4-[[2-(4-morpholino)ethyl]aminocarbonyl]phenylcarbonyl]-L-valyl-L-prolyl]amino-1,1,1-trifluoro-4-methyl-2-oxopentane hydrochloride] | 3.7 | 13.6 | 12.76 ± 1.11 | 66.3 | 5.372 ± 2.06 | 100.0 | 0.6476 ± 0.129 | 4.5 | 1200
CC(C)C(NC(=O)CN(C(=O)[C@@H](NC(=O)c1ccc(C(=O)NCC(=O)O)cc1)C(C)C)C1Cc2ccccc2C1)C(=O)C(F)(F)F (mixture of isomers) [Example 27, 3(RS)-[[4-(carboxymethylaminocarbonyl)phenylcarbonyl]-L-valyl-N-(2-indanyl)glycyl]-amino-1,1,1-trifluoro-4-methyl-2-oxopentane] | 16 | 24.8 | 10.68 ± 1.25 | 66.9 | 4.878 ± 0.917 | 99.8 | 0.3451 ± 0.084 | 3.7 | 2400
CC(C)C(NC(=O)CN(C(=O)[C@@H](NC(=O)c1ccc(C(=O)NCCN2CCOCC2)cc1)C(C)C)C1Cc2ccccc2C1)C(=O)C(F)(F)F (mixture of isomers) [Example 29, 3(RS)-[[4-[[2-(4-morpholino)ethyl]aminocarbonyl]phenylcarbonyl]-L-valyl-N-(2-indanyl)glycyl]amino-1,1,1-trifluoro-4-methyl-2-oxopentane] | 19 | 14.9 | 12.05 ± 1.95 | 43.2 | 8.155 ± 1.76 | 69.4 | 4.545 ± 1.49 | 17.9 | 2400
